≈ marks a conversion by molar mass, not a printed value.
How the values were obtained:
Type in all cases: cell-based
HTB-38HT-29 = test: In vitro anticancer MTT experiment; conditions: concentration 5 ug/ml, 48 h or 72 h, read-out: inhibition ratio HTB-38HT-29
Protocol: (§1) In vitro anticancer experiments of 25 compounds as anti-bacterial and anti-cancer compounds in the patent were tested. In the test, 14 kinds of cancer cells were used as tested cancer cells. And the results obtained by MTT method were shown in table 2 (the inhibition ratio was obtained when the concentration was 5 ug/ml). Tested Cancer Cells: SGC7901, HTB-38HT-29, CRL-2233NU-398, CRL-1469PANC-1, B0192, HTB-131MDA-453, CRL-1435PC-3, FTC133, AS24391, HTB-95637. (Cancer cells were from Chinese Military Academy of Medical Sciences). Cells Culture: Culture solution was composed of RPMI 1640 medium, 10% (VAT) Fetal calf serum and 0.01% L-glutamine. Cultured cells were maintained at 37° C. in an incubator with 5% CO2. The cells at logarithmic growth phase were used in the experiment. MTT Experiment: Single cell suspension was obtained by digesting cells with 0.25% trypsin. The cells at logarithmic growth phase were collected and seeded in a 96-well plate at a concentration of 6000-7000 cells per well. After culturing for 12 h at 37° C. in the incubator with 5% CO2, the cells were again incubated with the tested compounds of various concentrations for 48 h or 72 h. Pure cultures and cells without drug were taken as blank reference and negative reference, and 8 Wells of each group were taken. Twenty microliter of MTT (5 mg/mL) was added to each well, and the mixed solutions were incubation for 4 h. The formazan product was dissolved by dimethyl sulfoxide (DMSO, 150 μL), and the optical density (O.D.) was read at 570 nm. The Inhibition Ratio was calculated by the following formula: Inhibition Ratio=(Anegative control−Asample)/(Anegative control−Ablank control)

L1210 = test: In vitro anticancer MTT experiment; conditions: Mus musculus, concentration 5 ug/ml, 48 h or 72 h, read-out: inhibition ratio L1210
Protocol: as §1

AS24391 = test: In vitro anticancer MTT experiment; conditions: concentration 5 ug/ml, 48 h or 72 h, read-out: inhibition ratio AS24391
Protocol: as §1

L428 = test: In vitro anticancer MTT experiment; conditions: Homo sapiens, L-428, concentration 5 ug/ml, 48 h or 72 h, read-out: inhibition ratio L428
Protocol: as §1

B01092 = test: In vitro anticancer MTT experiment; conditions: concentration 5 ug/ml, 48 h or 72 h, read-out: inhibition ratio B01092
Protocol: as §1

A375 = test: In vitro anticancer MTT experiment; conditions: Homo sapiens, A-375, concentration 5 ug/ml, 48 h or 72 h, read-out: inhibition ratio A375
Protocol: as §1

HTB-95637 = test: In vitro anticancer MTT experiment; conditions: concentration 5 ug/ml, 48 h or 72 h, read-out: inhibition ratio HTB-95637
Protocol: as §1

HTB-131MDA-MB-453 = test: In vitro anticancer MTT experiment; conditions: concentration 5 ug/ml, 48 h or 72 h, read-out: inhibition ratio HTB-131MDA-MB-453
Protocol: as §1

CRL-1469PANC-1 = test: In vitro anticancer MTT experiment; conditions: concentration 5 ug/ml, 48 h or 72 h, read-out: inhibition ratio CRL-1469PANC-1
Protocol: as §1

HTB-94 = test: In vitro anticancer MTT experiment; conditions: concentration 5 ug/ml, 48 h or 72 h, read-out: inhibition ratio HTB-94
Protocol: as §1

FTC 133 = test: In vitro anticancer MTT experiment; conditions: Homo sapiens, concentration 5 ug/ml, 48 h or 72 h, read-out: inhibition ratio FTC 133
Protocol: as §1

CRL-1435PC-3 = test: In vitro anticancer MTT experiment; conditions: concentration 5 ug/ml, 48 h or 72 h, read-out: inhibition ratio CRL-1435PC-3
Protocol: as §1

CRL-2233SNU-398 = test: In vitro anticancer MTT experiment; conditions: concentration 5 ug/ml, 48 h or 72 h, read-out: inhibition ratio CRL-2233SNU-398
Protocol: as §1

SGC7901 = test: In vitro anticancer MTT experiment; conditions: Homo sapiens, SGC-7901, concentration 5 ug/ml, 48 h or 72 h, read-out: inhibition ratio SGC7901
Protocol: as §1

C. neoformans = test: In vitro antibacterial (antifungal) test, two-fold dilution MIC; conditions: Cryptococcus neoformans, RPMI 1640, culture 2-7 days
Protocol: (§2) In vitro antibacterial experiments of 25 compounds as anti-bacterial and anti-cancer compounds in the patent were tested using 14 kinds of bacteria. Tested bacteria: C. albicans, C. tropicalis, C. neoformans, E. floccosum, M. gypseum, A. niger, S. schenekn, C. parapsilosis, C. glabrata, C. Krusei, Trichoderma, Gibberella, Setrosphaeria turcica, Fusarium Oxysporum Vasinfectum. (Bacteria were from the Dermatology Hospital of Chinese Academy of Medical Sciences, Nanjing, China.)
(§3) The Preparation of tested Bacteria solution was following: incubated Bacteria were added to 5 ml physiological saline, and then they were mashed and placed with ultrasound. The solution was fully mixed, and insoluble substances were removed. The treated solution was called the original bacterium solution. In the test, the bacteria concentration in the original bacterium solution was adjusted to […].
(§4) Tested Methods: the tested compounds were dissolved in dimethyl sulfoxide. and the solution was diluted with sterile distilled water. And the distilled solution was added to sterilized RPMI 1640 medium. The concentration of the compounds were adjusted to 256, 128, 64, 32, 16, 8, 4, 2, 1, 0.5, 0.25, 0.125 ug*ml-1. Then the adjusted solutions were inoculated with tested bacteria, and the tested systems were placed in the constant temperature oven to culture for 2-7 days. The concentration at which there was no growing of fungi was taken as the minimum inhibitory concentration (MIC).

C. tropicalis = test: as above; conditions: Candida tropicalis, RPMI 1640, culture 2-7 days
Protocol: as §2, §3, §4

[1] = system: Fusarium oxysporum vasinfectum; test: as above; conditions: RPMI 1640, culture 2-7 days
Protocol: as §2, §3, §4

C. Krusei = test: as above; conditions: Pichia kudriavzevii, RPMI 1640, culture 2-7 days
Protocol: as §2, §3, §4

E. floccosum = test: as above; conditions: Epidermophyton floccosum, RPMI 1640, culture 2-7 days
Protocol: as §2, §3, §4

Setosphaeria turcica = test: as above; conditions: Exserohilum turcicum, RPMI 1640, culture 2-7 days
Protocol: as §2, §3, §4

C. parapsilosis = test: as above; conditions: Lodderomyces parapsilosis, RPMI 1640, culture 2-7 days
Protocol: as §2, §3, §4

C. glabrata = test: as above; conditions: Nakaseomyces glabratus, RPMI 1640, culture 2-7 days
Protocol: as §2, §3, §4

S. schenekn = test: as above; conditions: RPMI 1640, culture 2-7 days
Protocol: as §2, §3, §4

M. gypseum = test: as above; conditions: Nannizzia gypsea, RPMI 1640, culture 2-7 days
Protocol: as §2, §3, §4

C. albicans = test: as above; conditions: Candida albicans, read-out: MIC C. albicas
Protocol: as §2, §3, §4

Terchoderma = test: as above; conditions: Trichoderma, RPMI 1640, culture 2-7 days
Protocol: as §2, §3, §4

gibberella = test: as above; conditions: RPMI 1640, culture 2-7 days
Protocol: as §2, §3, §4

Row | Structure (SMILES) | inhibition at 5 µg/mL (L1210) [%] | inhibition at 5 µg/mL (AS24391) [%] | inhibition at 5 µg/mL (B01092) [%] | inhibition at 5 µg/mL (A375) [%] | inhibition at 5 µg/mL (HTB-131MDA-MB-453) [%] | inhibition at 5 µg/mL (CRL-1469PANC-1) [%] | inhibition at 5 µg/mL (HTB-94) [%] | inhibition at 5 µg/mL (FTC 133) [%] | inhibition at 5 µg/mL (CRL-1435PC-3) [%] | inhibition at 5 µg/mL (SGC7901) [%] | MIC (C. neoformans) [µg/mL] | MIC (C. tropicalis) [µg/mL] | MIC [1] [µg/mL] | MIC (E. floccosum) [µg/mL] | MIC (C. parapsilosis) [µg/mL] | MIC (C. glabrata) [µg/mL] | MIC (S. schenekn) [µg/mL] | MIC (M. gypseum) [µg/mL] | MIC (C. albicans) [µg/mL] | MIC (Terchoderma) [µg/mL] | also measured
1 | O=C1/C(=C/Cl)CSc2ccc(Cl)cc21 [Compound 4, (Z)-6-chloro-3-(chloromethylene)thiochroman-4-one] | 82.3 | 46.2 | 56.7 | 50.4 | 57.6 | 68 | 68 | 46.5 | 54.2 | 60.8 | 4 (≈ 16.3 µM) | 8 (≈ 32.6 µM) | 32 (≈ 131 µM) | 2 (≈ 8.16 µM) | 2 (≈ 8.16 µM) | 16 (≈ 65.3 µM) | 4 (≈ 16.3 µM) | 16 (≈ 65.3 µM) | 4 (≈ 16.3 µM) | 16 (≈ 65.3 µM) | inhibition at 5 µg/mL (HTB-38HT-29): 67.3%; inhibition at 5 µg/mL (L428): 66.6%; inhibition at 5 µg/mL (HTB-95637): 52.8%; inhibition at 5 µg/mL (CRL-2233SNU-398): 75.5%; MIC (C. Krusei): 32 µg/mL (≈ 131 µM); MIC (Setosphaeria turcica): 8 µg/mL (≈ 32.6 µM)
2 | Cc1ccc2c(c1)C(=O)/C(=C/Br)CS2 [Compound 8, (Z)-3-(bromomethylene)-6-methylthiochroman-4-one] | 84.6 | 40 | 39 | 37.9 | 47.3 | 47.9 | 56.7 | 75.6 | 50.6 | 60.6 | 8 (≈ 29.7 µM) | 64 (≈ 238 µM) | 64 (≈ 238 µM) | 64 (≈ 238 µM) | 32 (≈ 119 µM) | 64 (≈ 238 µM) | 32 (≈ 119 µM) | 64 (≈ 238 µM) | 32 (≈ 119 µM) | 32 (≈ 119 µM) | inhibition at 5 µg/mL (HTB-38HT-29): 54.9%; inhibition at 5 µg/mL (L428): 44.2%; inhibition at 5 µg/mL (HTB-95637): 56.4%; inhibition at 5 µg/mL (CRL-2233SNU-398): 46.4%; MIC (C. Krusei): 64 µg/mL (≈ 238 µM); MIC (Setosphaeria turcica): 64 µg/mL (≈ 238 µM)
3 | O=C1/C(=C/Cl)CSc2ncccc21 [Compound 18, (Z)-3-(chloromethylene)-2H-thiopyrano[2,3-b]pyridin-4(3H)-one] | 76.8 | 63.5 | 67.7 | 67.8 | 77.1 | 56.4 | 49 | 55 | 41 | 47.5 | 4 (≈ 18.9 µM) | 16 (≈ 75.6 µM) | 16 (≈ 75.6 µM) | 32 (≈ 151 µM) | 8 (≈ 37.8 µM) | 16 (≈ 75.6 µM) | 4 (≈ 18.9 µM) | 32 (≈ 151 µM) | 8 (≈ 37.8 µM) | 16 (≈ 75.6 µM) | inhibition at 5 µg/mL (HTB-38HT-29): 63.5%; inhibition at 5 µg/mL (HTB-95637): 56.4%; inhibition at 5 µg/mL (CRL-2233SNU-398): 46.6%; MIC (C. Krusei): 32 µg/mL (≈ 151 µM); MIC (Setosphaeria turcica): 8 µg/mL (≈ 37.8 µM)
4 | O=C1/C(=C/Cl)CSc2sccc21 [Compound 19, (Z)-5-(chloromethylene)-5,6-dihydro-4H-thieno[2,3-b]thiopyran-4-one] | 76.4 | 53 | 36.5 | 46.2 | 47.9 | 67.9 | 48.5 | 54.8 | 41.3 | 56.4 | 16 (≈ 73.8 µM) | 16 (≈ 73.8 µM) | 16 (≈ 73.8 µM) | 4 (≈ 18.5 µM) | 4 (≈ 18.5 µM) | 32 (≈ 148 µM) | 32 (≈ 148 µM) | 16 (≈ 73.8 µM) | 8 (≈ 36.9 µM) | 4 (≈ 18.5 µM) | inhibition at 5 µg/mL (L428): 47.5%; MIC (gibberella): 8 µg/mL (≈ 36.9 µM); MIC (Setosphaeria turcica): 32 µg/mL (≈ 148 µM)
5 | O=C1/C(=C\Cl)SCc2ccccc21 [Compound 26, (E)-3-(chloromethylene)isothiochroman-4-one] | – | – | – | – | – | – | – | – | – | – | 4 (≈ 19 µM) | 8 (≈ 38 µM) | 4 (≈ 19 µM) | 4 (≈ 19 µM) | 32 (≈ 152 µM) | 16 (≈ 75.9 µM) | 8 (≈ 38 µM) | 16 (≈ 75.9 µM) | 2 (≈ 9.49 µM) | 8 (≈ 38 µM) | MIC (C. Krusei): 8 µg/mL (≈ 38 µM); MIC (gibberella): 16 µg/mL (≈ 75.9 µM); MIC (Setosphaeria turcica): 2 µg/mL (≈ 9.49 µM)
6 | Cc1ccc2c(c1)C(Cl)/C(=C/Cl)CS2 (centres unmarked) [Compound 28, (E)-4-chloro-3-(chloromethylene)-6-methylthiochroman] | 79.4 | 72.3 | 46.2 | 52.7 | 56.8 | 75.3 | 62.2 | 72.5 | 65.2 | 63.3 | 8 (≈ 32.6 µM) | 16 (≈ 65.3 µM) | 64 (≈ 261 µM) | 4 (≈ 16.3 µM) | 32 (≈ 131 µM) | 32 (≈ 131 µM) | 16 (≈ 65.3 µM) | 16 (≈ 65.3 µM) | 32 (≈ 131 µM) | 16 (≈ 65.3 µM) | inhibition at 5 µg/mL (HTB-38HT-29): 72.4%; inhibition at 5 µg/mL (L428): 66.7%; inhibition at 5 µg/mL (HTB-95637): 48.2%; inhibition at 5 µg/mL (CRL-2233SNU-398): 56.3%
